From the supplement of paper PMC9013687
± gives the standard deviation of the averaged measurements.

How the values were obtained:
Danio rerio embryo [1] = tested on: Danio rerio embryo
Procedure: (§1)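 Zebrafish embryos (UFZ-OBI strain) were exposed from 2 hpf for 48 h (2 dpf) or 96 h (4 dpf) at 28 °C; spontaneous tail coiling was scored at 25 hpf. Morphological features from automated image analysis (FishInspector), heart rate and locomotor response were fitted with drc models. Quantal endpoints were dichotomised at 2.5 SD from controls and fitted with a log-logistic model; heart rate, pigmentation and STC were normalised to the replicate control mean. Betamethasone was tested as betamethasone dipropionate, diflorasone as diflorasone diacetate.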

Danio rerio embryo [2] = conditions: exposure time: 4 dpf
Procedure: as §1

Danio rerio embryo [3] = assay: EC50 Curvature_Increase
Procedure: as §1

Danio rerio embryo [4] = assay: EC50 Body length_Decrease
Procedure: as §1

Danio rerio embryo [5] = assay: EC50 Bladder size_Decrease; conditions: exposure time: 4 dpf
Procedure: as §1

Danio rerio embryo [6] = assay: EC50 Pericard size_Increase; conditions: exposure time: 4 dpf
Procedure: as §1

Danio rerio embryo [7] = assay: EC50 Yolk sac size_Increase; conditions: exposure time: 4 dpf
Procedure: as §1

Danio rerio embryo [8] = assay: EC50 Eye-jaw distance_Decrease; conditions: exposure time: 4 dpf
Procedure: as §1

Danio rerio embryo [9] = assay: EC50 Otolith-eye distance_Decrease; conditions: exposure time: 4 dpf
Procedure: as §1

Danio rerio embryo [10] = assay: EC10 LMR dark; higher = less potent; conditions: exposure time: 4 dpf
Procedure: as §1

Danio rerio embryo [11] = assay: EC20 LMR dark; higher = less potent; conditions: exposure time: 4 dpf
Procedure: as §1

Danio rerio embryo [12] = assay: EC20 Any effect; higher = less potent
Procedure: as §1

Danio rerio embryo [13] = assay: EC10 Any effect; higher = less potent
Procedure: as §1

Danio rerio embryo [14] = assay: EC10 Curvature_Increase; higher = less potent
Procedure: as §1

Danio rerio embryo [15] = assay: EC20 Curvature_Increase; higher = less potent
Procedure: as §1

Danio rerio embryo [16] = assay: EC20 Body length_Decrease; higher = less potent
Procedure: as §1

Danio rerio embryo [17] = assay: EC10 Body length_Decrease; higher = less potent
Procedure: as §1

Danio rerio embryo [18] = assay: EC10 Bladder size_Decrease; higher = less potent; conditions: exposure time: 4 dpf
Procedure: as §1

Danio rerio embryo [19] = assay: EC20 Bladder size_Decrease; higher = less potent; conditions: exposure time: 4 dpf
Procedure: as §1

Danio rerio embryo [20] = assay: EC20 Yolk sac size_Increase; higher = less potent; conditions: exposure time: 4 dpf
Procedure: as §1

Danio rerio embryo [21] = assay: EC20 Pericard size_Increase; higher = less potent; conditions: exposure time: 4 dpf
Procedure: as §1

Danio rerio embryo [22] = assay: EC10 Yolk sac size_Increase; higher = less potent; conditions: exposure time: 4 dpf
Procedure: as §1

Danio rerio embryo [23] = assay: EC10 Pericard size_Increase; higher = less potent; conditions: exposure time: 4 dpf
Procedure: as §1

Danio rerio embryo [24] = assay: EC20 Eye-jaw distance_Decrease; higher = less potent; conditions: exposure time: 4 dpf
Procedure: as §1

Danio rerio embryo [25] = assay: EC10 Eye-jaw distance_Decrease; higher = less potent; conditions: exposure time: 4 dpf
Procedure: as §1

Danio rerio embryo [26] = assay: EC20 Otolith-eye distance_Decrease; higher = less potent; conditions: exposure time: 4 dpf
Procedure: as §1

Danio rerio embryo [27] = assay: EC10 Otolith-eye distance_Decrease; higher = less potent; conditions: exposure time: 4 dpf
Procedure: as §1

Danio rerio embryo [28] = assay: spontaneous tail coiling frequency (coils/min/embryo); higher = more spontaneous movement; conditions: 25 hpf
Procedure: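 Spontaneous tail coilings of zebrafish embryos exposed from 2 hpf were recorded at 24-25 hpf in 1-min videos and detected by a KNIME workflow from grey-value variance. Betamethasone was tested as the dipropionate, diflorasone as the diacetate.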

In the case of `CCOC(=O)N1CCC(=C2c3ccc(Cl)cc3CCc3cccnc32)CC1` [Loratadine], the “EC50 Any effect” value (Danio rerio embryo [1]; exposure time: 2 dpf) is reported as 6.4 µM, the “EC50 Any effect” value (Danio rerio embryo [1]; exposure time: 4 dpf) is reported as 0.438 µM and the “EC50 STC decrease” value (Danio rerio embryo [1]; exposure time: 25 h) is reported as 6.63 µM. For the same compound, the “EC50 LMR dark” value (Danio rerio embryo [2]) was 0.399 µM, the “EC50 Curvature Increase” value (Danio rerio embryo [3]; exposure time: 2 dpf) was 6.62 µM and the “EC50 Body length Decrease” value (Danio rerio embryo [4]; exposure time: 2 dpf) was 7.83 µM. For the same compound, the “EC50 Body length Decrease” value (Danio rerio embryo [4]; exposure time: 4 dpf) was 0.442 µM, the “EC50 Bladder size Decrease” value (Danio rerio embryo [5]) was 0.282 µM and the “EC50 Pericard size Increase” value (Danio rerio embryo [6]) was 10.2 µM. The “EC50 Yolk sac size Increase” value (Danio rerio embryo [7]) was 11.6 µM, the “EC50 Eye-jaw distance Decrease” value (Danio rerio embryo [8]) was 6.86 µM and the “EC50 Otolith-eye distance Decrease” value (Danio rerio embryo [9]) was 5.49 µM. The “EC10 LMR dark” value (Danio rerio embryo [10]) was 0.279 µM, the “EC20 LMR dark” value (Danio rerio embryo [11]) was 0.318 µM and the “EC20 Any effect” value (Danio rerio embryo [12]; exposure time: 2 dpf) was 5.01 µM. The “EC20 Any effect” value (Danio rerio embryo [12]; exposure time: 4 dpf) was 0.398 µM, the “EC10 Any effect” value (Danio rerio embryo [13]; exposure time: 2 dpf) was 4.34 µM and the “EC10 Any effect” value (Danio rerio embryo [13]; exposure time: 4 dpf) was 0.376 µM. For the same compound, the “EC10 Curvature Increase” value (Danio rerio embryo [14]; exposure time: 2 dpf) was 3.56 µM, the “EC20 Curvature Increase” value (Danio rerio embryo [15]; exposure time: 2 dpf) was 4.48 µM and the “EC20 Body length Decrease” value (Danio rerio embryo [16]; exposure time: 2 dpf) was 6 µM. The “EC20 Body length Decrease” value (Danio rerio embryo [16]; exposure time: 4 dpf) was 0.404 µM, the “EC10 Body length Decrease” value (Danio rerio embryo [17]; exposure time: 2 dpf) was 5.13 µM and the “EC10 Body length Decrease” value (Danio rerio embryo [17]; exposure time: 4 dpf) was 0.383 µM. The “EC10 Bladder size Decrease” value (Danio rerio embryo [18]) was 0.165 µM, the “EC20 Bladder size Decrease” value (Danio rerio embryo [19]) was 0.201 µM and the “EC20 Yolk sac size Increase” value (Danio rerio embryo [20]) was 6.74 µM. For the same compound, the “EC20 Pericard size Increase” value (Danio rerio embryo [21]) was 4.72 µM, the “EC10 Yolk sac size Increase” value (Danio rerio embryo [22]) was 4.91 µM and the “EC10 Pericard size Increase” value (Danio rerio embryo [23]) was 3.01 µM. For the same compound, the “EC20 Eye-jaw distance Decrease” value (Danio rerio embryo [24]) was 5.67 µM, the “EC10 Eye-jaw distance Decrease” value (Danio rerio embryo [25]) was 5.07 µM and the “EC20 Otolith-eye distance Decrease” value (Danio rerio embryo [26]) was 4.62 µM. For the same compound, the “EC10 Otolith-eye distance Decrease” value (Danio rerio embryo [27]) was 4.17 µM, the “spontaneous tail coiling frequency” value (Danio rerio embryo [28]; 0.155 µM) was 2.97 and the “spontaneous tail coiling frequency” value (Danio rerio embryo [28]; 0.31 µM) was 1.28. For the same compound, the “spontaneous tail coiling frequency” value (Danio rerio embryo [28]; 0.61 µM) was 1.66, the “spontaneous tail coiling frequency” value (Danio rerio embryo [28]; 1.22 µM) was 1.82 ± 0.75 and the “spontaneous tail coiling frequency” value (Danio rerio embryo [28]; 2.45 µM) was 2.58 ± 0.62. The “spontaneous tail coiling frequency” value (Danio rerio embryo [28]; 4.9 µM) was 1.79 ± 0.028 and the “spontaneous tail coiling frequency” value (Danio rerio embryo [28]; 9.79 µM) was 0.505 ± 0.32.

For `CN(Cc1cnc2nc(N)nc(N)c2n1)c1ccc(C(=O)N[C@@H](CCC(=O)O)C(=O)O)cc1` [Methotrexate], the “EC50 Any effect” value (Danio rerio embryo [1]; exposure time: 2 dpf) was 207 µM, the “EC50 Any effect” value (Danio rerio embryo [1]; exposure time: 4 dpf) was 116 µM and the “EC50 LMR ligth decrease” value (Danio rerio embryo [1]; exposure time: 4 dpf) was 127 µM. The “EC50 LMR dark” value (Danio rerio embryo [2]) was 243 µM, the “EC50 Curvature Increase” value (Danio rerio embryo [3]; exposure time: 2 dpf) was 250 µM and the “EC50 Curvature Increase” value (Danio rerio embryo [3]; exposure time: 4 dpf) was 219 µM. For the same compound, the “EC50 Body length Decrease” value (Danio rerio embryo [4]; exposure time: 2 dpf) was 241 µM, the “EC50 Body length Decrease” value (Danio rerio embryo [4]; exposure time: 4 dpf) was 214 µM and the “EC50 Bladder size Decrease” value (Danio rerio embryo [5]) was 108 µM. The “EC50 Pericard size Increase” value (Danio rerio embryo [6]) was 385 µM, the “EC50 Yolk sac size Increase” value (Danio rerio embryo [7]) was 173 µM and the “EC50 Eye-jaw distance Decrease” value (Danio rerio embryo [8]) was 197 µM. For the same compound, the “EC50 Otolith-eye distance Decrease” value (Danio rerio embryo [9]) was 248 µM, the “EC10 LMR dark” value (Danio rerio embryo [10]) was 186 µM and the “EC20 LMR dark” value (Danio rerio embryo [11]) was 206 µM. For the same compound, the “EC20 Any effect” value (Danio rerio embryo [12]; exposure time: 2 dpf) was 126 µM, the “EC20 Any effect” value (Danio rerio embryo [12]; exposure time: 4 dpf) was 55.2 µM and the “EC10 Any effect” value (Danio rerio embryo [13]; exposure time: 2 dpf) was 93.9 µM. The “EC10 Any effect” value (Danio rerio embryo [13]; exposure time: 4 dpf) was 35.7 µM, the “EC10 Curvature Increase” value (Danio rerio embryo [14]; exposure time: 2 dpf) was 133 µM and the “EC10 Curvature Increase” value (Danio rerio embryo [14]; exposure time: 4 dpf) was 172 µM. The “EC20 Curvature Increase” value (Danio rerio embryo [15]; exposure time: 2 dpf) was 168 µM, the “EC20 Curvature Increase” value (Danio rerio embryo [15]; exposure time: 4 dpf) was 188 µM and the “EC20 Body length Decrease” value (Danio rerio embryo [16]; exposure time: 2 dpf) was 180 µM. The “EC20 Body length Decrease” value (Danio rerio embryo [16]; exposure time: 4 dpf) was 136 µM, the “EC10 Body length Decrease” value (Danio rerio embryo [17]; exposure time: 2 dpf) was 151 µM and the “EC10 Body length Decrease” value (Danio rerio embryo [17]; exposure time: 4 dpf) was 104 µM. The “EC10 Bladder size Decrease” value (Danio rerio embryo [18]) was 95.7 µM, the “EC20 Bladder size Decrease” value (Danio rerio embryo [19]) was 99.9 µM and the “EC20 Yolk sac size Increase” value (Danio rerio embryo [20]) was 44.7 µM. For the same compound, the “EC20 Pericard size Increase” value (Danio rerio embryo [21]) was 193 µM, the “EC10 Yolk sac size Increase” value (Danio rerio embryo [22]) was 20.2 µM and the “EC10 Pericard size Increase” value (Danio rerio embryo [23]) was 129 µM. For the same compound, the “EC20 Eye-jaw distance Decrease” value (Danio rerio embryo [24]) was 146 µM, the “EC10 Eye-jaw distance Decrease” value (Danio rerio embryo [25]) was 122 µM and the “EC20 Otolith-eye distance Decrease” value (Danio rerio embryo [26]) was 154 µM. The “EC10 Otolith-eye distance Decrease” value (Danio rerio embryo [27]) was 116 µM, the “spontaneous tail coiling frequency” value (Danio rerio embryo [28]; 43.5 µM) was 3.02 and the “spontaneous tail coiling frequency” value (Danio rerio embryo [28]; 65.2 µM) was 3.58 ± 0.63. For the same compound, the “spontaneous tail coiling frequency” value (Danio rerio embryo [28]; 97.8 µM) was 2.42 ± 0.82, the “spontaneous tail coiling frequency” value (Danio rerio embryo [28]; 146.7 µM) was 1.83 ± 0.26 and the “spontaneous tail coiling frequency” value (Danio rerio embryo [28]; 220.1 µM) was 2.71 ± 0.25. For the same compound, the “spontaneous tail coiling frequency” value (Danio rerio embryo [28]; 330.1 µM) was 3.53 ± 1.3 and the “spontaneous tail coiling frequency” value (Danio rerio embryo [28]; 440.1 µM) was 3.51.
